Where “and” joins values, the source holds several entries; their conditions need not be identical. Equal entries are not always repeated. Where two headings read alike, the source gives them in different places.
What was measured:
interleukin-2 (IL-2) = conditions: single animals
Experimental: The test animals were Balb-c, male, mice, 6 to 8 weeks of age. […] The animals received the following injections:
Each of groups a, b, c and d consisted of 21 animals. The animals were sacrificed daily from 24 h to 7 days after injection. On each day, spleen cells from three of the animals from each control group were pooled together and processed by passing the spleen cells through a 60 mesh stainless steel net in a 5 mm Petri dish containing PBS in order to separate the cells. The cells were collected and centrifuged at 1000 rpm for 10 minutes. The supernatant was discarded and the cells were treated for two minutes with 5 ml of hypotonic buffer (0.15M NH4 Cl, 0.01M KHCO3 dissolved in double distilled water, pH 7.2) to kill the erythrocytes. Thereafter, PBS was added to the cells and the cells were centrifuged for 10 minutes at 1000 rpm. The cells were washed twice with PBS and counted in a hemocytometer using trypan blue to test for viability. The cells were brought to a concentration of 10^7 cells/ml using enriched RPMI containing 10% fetal calf serum (Ser Lab, Sussex, England); 5×10^−5M 2-mercaptoethanol and 3% of d-glutamine (Bio Lab Israel); stock solution 2 mM×1000 nonessential amino acids (Bio Lab, Israel); stock solution×100 and sodium pyruvate (Bio Lab, Israel) stock solution 1 mM×100. An additional three animals from each of the experimental groups were sacrificed and each of the spleens was processed separately using the same procedure.
The cell mixture was divided into two groups:
Supernatants were collected, centrifuged at 1,600 rpm for 10 minutes and stored at 4° C. until used. […] These supernatants were assayed for CSF activity. Prior to incubation of the cells, samples were removed from culture plates and smears of the cultures were made by cytocentrifugation. Slides were stained with May-Grunwald-Giemsa (1:10) solution and evaluated morphologically. A radioactive thymidine assay was used to determine IL-2 activity. Assay for IL-2 Activity • 1. Supernatants were tested for IL-2 activity by the proliferation of the IL-2 dependent cell line CTLD. The IL-2 assay is based on the growth dependence of these cultured T-cell lines on IL-2. T cells harvested from IL-2 dependent culture, washed and placed back in culture in the absence of IL-2 invariably die within 24 hr. By using tritiated thymidine incorporation (^3H-TdR) as an index of cultured T-cell replication, the IL-2 microassay provides a highly reproducible and quantitative indication of the amount of IL-2 activity in the supernatant prepared hereinabove. • 2. To assay a condition medium for IL-2 activity, a sample containing 5 x 10^4 CTLD cells, 10% fetal calf serum and 50% of supernatant in question, all were suspended in a final volume of 1 ml RPMI. Aliquots of 0.2 ml from each sample were placed in four replicate wells of 96 microwell tissue culture plates (NUNC). Conditioned medium was obtained from cultures of Charles River rat spleen cells stimulated with Con A that contained a known amount of IL-2 as a reference in all assays. • 3. The microwells were incubated for 24 hr at 37° C. after which 1 microcurie/well of ^3H-methylthymidine was added. Cells were then further incubated overnight, harvested with a cell harvester, and counted in a beta scintillator.

IL-2 [1] = test system: IL-2
Experimental: The complexes were administered in these dilutions, as drinking water, to male Balb-C mice, 6-8 weeks of age over a 4 day period. The exact amount of liquid intake was recorded daily. […] The cells were incubated at a concentration of 10^7 cells/ml in enriched RPMI containing 2 μg/ml of con-A for 24 hours at 37° C. The supernatants were collected and tested for IL-2 content.

IL-2 [2] = conditions: 72 hours culture, 50% supernatant on CTLD cells
Text: Culture supernatants were collected, centrifuged and tested for IL-2 activity by using 50% of the volume of the supernatant assaying their ability to support the proliferation of the IL-2 dependent cell line CTLD.

[3] = 1 μg/ml H2O as drinking water over 4 days
[4] = 10 μg/ml H2O as drinking water over 4 days

Cl[Te]1(Cl)(Cl)OCCO1.N [Example 1, equimolar complex of TeO2 and ethylene glycol, NH4Cl salt]
IL-2 activity (interleukin-2 (IL-2); 1 μg IP in 0.2 ml DMSO/PBS, day 1): 25.919 CPM and 34.326 CPM and 16.718 CPM | IL-2 activity (interleukin-2 (IL-2); 1 μg IP in 0.2 ml DMSO/PBS, day 2): 21.398 CPM and 22.050 CPM and 9.338 CPM | IL-2 activity (interleukin-2 (IL-2); 1 μg IP in 0.2 ml DMSO/PBS, day 4): 31.999 CPM and 14.226 CPM and 17.228 CPM | IL-2 activity (interleukin-2 (IL-2); 1 μg IP in 0.2 ml DMSO/PBS, day 6): 41.261 CPM and 80.314 CPM and 42.485 CPM | IL-2 activity (interleukin-2 (IL-2); 1 μg IP in 0.2 ml DMSO/PBS, day 7): 66.854 CPM and 58.094 CPM and 51.268 CPM | IL-2 activity (interleukin-2 (IL-2); 10 μg IP in 0.2 ml DMSO/PBS, day 1): 24.335 CPM and 21.193 CPM and 25.381 CPM | IL-2 activity (interleukin-2 (IL-2); 10 μg IP in 0.2 ml DMSO/PBS, day 2): 31.901 CPM and 36.390 CPM and 22.066 CPM | IL-2 activity (interleukin-2 (IL-2); 10 μg IP in 0.2 ml DMSO/PBS, day 3): 20.316 CPM and 18.288 CPM and 12.126 CPM | IL-2 content, cpm (IL-2 [1]; [3]): 44500 cpm | Percent increase as compared to control (IL-2 [1]; [3]): +35% | IL-2 content, cpm (IL-2 [1]; [4]): 49179 cpm | Percent increase as compared to control (IL-2 [1]; [4]): +50% | inducing lymphokine production when given orally (IL-2 [1]; orally in an aqueous diluent): active | IL-2 activity, Counts per minute (IL-2 [2]; 1 ng): 11,000 Counts per minute | IL-2 activity, Counts per minute (IL-2 [2]; 10 ng): 1,500 Counts per minute | IL-2 activity, Counts per minute (IL-2 [2]; 1 μg): 250 Counts per minute | IL-2 activity, Counts per minute (IL-2 [2]; 100 μg): 280 Counts per minute

Source: patent publication US8048915B2, “Biologically active complex” (BioMas Ltd., priority 2001, dated 2011)
